According to US12421499B2, “Method of differentiation of human pluripotent stem cells to monohormonal cells” (Cornell University, priority 2018, dated 2025):

Tests used:
[1] = tested on: GLIS3−/− PP2-β cells; assay: Cell apoptosis rate (cleaved caspase-3+ INS+ cells in INS+ cells) and INS+ cell number, high content imaging; assay type: cell-based, human; conditions: for cell apoptosis rate: INS-GFP+ GLIS3−/− PP2-β cells
Experimental: Immunofluorescence staining. Cells were fixed in 4% paraformaldehyde solution (Affymetrix) for 20 min, then blocked and permeabilized in PBS solution containing 5% horse serum and 0.3% Triton for 1 hr at room temperature. The cells were incubated with primary antibodies overnight at 4 C followed by 1 hr incubation with fluorescence-conjugated secondary antibodies (Alexafluor, ThermoFisher Scientific) at RT. For pSMAD2/3 staining, cells were permeabilized with ice-cold methanol at ˜20 C for 10 min after fixation and prior to blocking. The following primary antibodies were used: anti-OCT4 (1:200, Santa Cruz), anti-SOX17 (1:500, R&D), anti-PDX1 (1:500, R&D), anti-SOX9 (1:1000, Millipore), anti-NKX6.1 (1:500, DSHB), anti-NKX2.2 (1:500, DSHB), anti-PAX6 (1:1000, Covance), anti-ISL1 (1:200, DSHB), anti-UCN3 (1:500, Phoenix Pharmaceuticals), anti-NGN3 (1:500, R&D), anti-chromogranin A (1:1000, Immunostar), anti-glucagon (1:2000, Sigma) anti-somatostatin (1:1000, DAKO), anti-ghrelin (1:500, Santa Cruz), anti-insulin (1:500, DAKO) and anti-cleaved caspase-3 (1:1000, BD Biosciences), anti-pSMAD2/3 (1:200, Cell Signaling).
High throughput chemical screening. To perform the high throughput small molecule screening, GLIS3^−/− cells at D26_L were dissociated using Accutase and replated onto 804G-coated 384-well plates at 20,000 cells/80 μl medium/well. After 8 hr, cells were treated at 1 μM and 10 μM with compounds from an in-house library of 300 signaling pathway modulators, an epigenetics library (Cayman Chemical), Prestwick library of approved drugs (FDA, EMA and other agencies), LOPAC (Sigma Aldrich) and the MicroSource library totaling 5000 chemicals. DMSO treatment was used as a negative control. Untreated wells containing WT cells were included as positive control. After 4 days of culture, cells were first stained with 2.5 μg/mL PI and then fixed and stained using antibodies against Insulin (DAKO) and cleaved caspase-3 (BD biosciences). Plates were analyzed using a Molecular Devices ImageXpress High-Content Analysis System. Two-dimensional analysis was used. Compounds inducing lower % cleaved caspase-3 (Z-score<−1.5) and a similar or higher number of INS^+ cells compared to DMSO treated wells were selected as primary hits.

[2] = tested on: GLIS3−/− PP2-β cells; assay: Cell death rate (PI+ INS+ cells in INS+ cells), propidium iodide staining; assay type: cell-based, human; conditions: for cell death rate: INS-GFP+ GLIS3−/− PP2-β cells
Experimental: Propium iodide cell viability staining. Cells at D30_L were dissociated using Accutase and replated onto 96-well plates coated with 804-G conditioned medium. Once attached, cells were stained by 2.5 μg mL^−1 propium iodide in DMEM for 12 min, washed once with DMEM and fixed with 4% paraformaldehyde for 20 min. DAPI was used to quantify total number of cells after fixation. Plates were analyzed using a Molecular Devices ImageXpress High-Content Analysis System. Data was quantified using MetaXpress software.

[3] = tested on: WT INS-GFP+ PP2-β cells; assay: Annexin V apoptosis analysis in wild-type cells; assay type: cell-based, human; conditions: 10 μM
Experimental: Annexin V cellular apoptosis analysis. hESC derived cells were dissociated by Accutase and washed with cold PBS, stained with the PE/Annexin V apoptosis detection Kit (BD Bioscience, 559763) or A647-conjugated annexin V (Thermo Fisher Scientific) according to manufacturer's instructions, the samples were the analyzed by flow cytometry (BD Bioscience, FASC ARIA2) within 30 min. To include a positive control for apoptosis, cells were incubated with 10 μM Camptothecin (Sigma Aldrich) or DMSO for 4 hours prior to Annexin V staining.

[4] = tested on: GLIS3−/− PP2 cells transplanted under the kidney capsule; assay: In vivo transplantation and drug treatment, graft apoptosis by immunohistochemistry; set-up: species or system SCID-beige mice; conditions: 15 mg/kg/day intraperitoneal for seven days, vs vehicle
Experimental: In vivo transplantation and drug treatment. WT and isogenic mutant hESCs at day 24 of differentiation (around 1 million cells) were harvested by cell scraper, mixed with 20 μl Matrigel (Corning) and transplanted under the kidney capsule of 6-8 weeks old male SCID-beige mice. For drug treatment, mice were injected intraperitoneally with 15 mg/kg/day galunisertib or vehicle for seven days. To prepare the injection cocktail, 200 mM galunisertib in DMSO was diluted ˜15 times with a 50:50 mixture of PEG300 (Sigma Aldrich) and saline (APP Pharmaceuticals). All animal work was conducted in agreement with NIH guidelines and approved by the local Institutional Animal Care and Use Committee (IACUC), the Institutional Biosafety Committee (IBC) as well as the Embryonic Stem Cell Research Committee (ESCRO).
Immunohistochemistry. Mouse kidneys with cells grafted under the capsules were washed with PBS, fixed with 4% paraformaldehyde at 4C overnight and transferred to 30% sucrose solution for dehydration. […] The slides were blocked and permeabilized in PBS solution containing 5% horse serum and 0.3% Triton for 1 hr at RT and then incubated with primary antibodies overnight at 4C followed by 1 hr incubation with fluorescence-conjugated secondary antibodies (Alexafluor, ThermoFisher Scientific) at RT. […] Fluorescent images were scored using MetaMorph® image analysis software (Molecular Devices).

[5] = tested on: SMAD2/3 phosphorylation; assay: Western blot of SMAD2/3 phosphorylation; assay type: cell-based, human; conditions: 10 μM; GLIS3−/− cells at D30_L; vs DMSO
Experimental: Western blot analysis. Whole-cell lysates were generated by scraping cultures on day 24 of differentiation in cold PBS, and re-suspending in complete lysis buffer (20 mM Tris pH 7.0, 150 mM NaCl, 50 mM NaF, 1% NP-40 substitute, and Thermo Scientific HALT protease inhibitor cocktail 1:100). Lysates were loaded onto 10% NuPage Bis-Tris gels (Invitrogen), resolved by electrophoresis, and transferred to PVDF membranes (Bio-Rad). Membranes were blocked with 5% bovine serum albumin in TBS+ 0.05% Tween and probed overnight with primary antibody. The antibodies were rabbit anti-phospho-SMAD2/3 (1:250, Cell Signaling), rabbit anti-SMAD2/3 XP (1:5000, Cell Signaling), and mouse anti-β-actin (1:50000, Sigma A1978). Membranes were washed and incubated for 1 hr with HRP-conjugated secondary antibody (Bio-Rad) in 5% milk-TBS-0.05% Tween and developed using SuperSignal West Pico (Thermo Scientific) or Immobilon (Millipore) ECL substrate.

[6] = 10 μM, GLIS3−/− cells at D30_L, vs DMSO

Cc1cccc(-c2nn(C(=S)Nc3ccccc3)cc2-c2ccnc3ccccc23)n1 [A83-01]
cell apoptosis rate ([1]; 10 μM): significantly decrease | cell death rate ([2]; 10 μM): significantly decrease

Cc1cccc(-c2nn3c(c2-c2ccnc4ccc(C(N)=O)cc24)CCC3)n1 [galunisertib]
number of INS+ cells ([1]; 10 μM, GLIS3−/− PP2-β cells, normalized to DMSO): increases | cell apoptosis [1, 6]: significantly reduces | IC50 ([1]; Homo sapiens, dose-dependent, inhibitory curve FIG. 4c, read-out: IC50, rescue of loss of GLIS3-induced pancreatic β-cell apoptosis): 1140 nM | cell death [2, 6]: significantly reduces | cell apoptosis of WT INS+ cells [3]: does not affect | cell apoptosis rate in the transplanted cells (cleaved caspase-3+/STEM121+ cells in STEM121+ cells) ([4]; cells pre-treated with 10 μM for 16 hr): significantly decreases | cell apoptosis rate in INS+ and PDX1+ cells in the grafts [4]: significantly decreases | increased SMAD2/3 phosphorylation [5]: inhibits

NC(=O)c1ccc(-c2nc(-c3ccccn3)c(-c3ccc4c(c3)OCO4)[nH]2)cc1 [SB431642]
cell apoptosis rate ([1]; 1 μM): significantly decrease | cell death rate ([2]; 1 μM): significantly decrease

c1ccc(-c2[nH]ncc2-c2ccnc3ccccc23)nc1 [LY-364947]
cell apoptosis rate ([1]; 10 μM): significantly decrease | cell death rate ([2]; 10 μM): significantly decrease

Cc1cccc(-c2[nH]c(C(C)(C)C)nc2-c2ccc3nccnc3c2)n1 [SB525334]
cell apoptosis rate ([1]; 1 μM): significantly decrease | cell death rate ([2]; 1 μM): significantly decrease
